Reference: article PMC5531531, “A synthetic cationic antimicrobial peptide inhibits inflammatory response and the NLRP3 inflammasome by neutralizing LPS and ATP” (PLoS ONE, 2017)
No end group written: not given here.

Tests used:
[1] = test system: LPS-induced NO generation in RAW264.7 cells; assay: NO inhibitory assay (Griess reaction), LPS-activated RAW 264.7; assay type: cell-based, mouse
Description: (§1) RAW 264.7 cells (2 × 10^5 in 0.5 ml of medium) were seeded in 24-well plates and then incubated with or without LPS (0.1 μg/ml) in the absence or presence of AMP for 24 h. The effects of AMP on NO production were measured indirectly by analyzing nitrite levels using the Griess reaction as described in detail previously.

[2] = test system: NLRP3 inflammasome in J774A.1 macrophages; assay: NLRP3 inflammasome activation (IL-1β ELISA, caspase-1 Western blot); assay type: cell-based
Description: The expression levels of IL-1β, IL-6 and TNF-α in the conditional medium, sera and lavage fluids were measured by ELISA as described in detail previously.
The protein expression levels of iNOS, COX-2, ERK1/2, JNK1/2, p38, IκB-α, PKC, caspase-1 and the phosphorylation levels of ERK1/2, JNK1/2, p38, PKC-α, PKC-δ, IκB-α were determined by Western blotting as described in detail previously.
Fig 4 Effects of GW-A2 on NLRP3 inflammasome activation. (A and B) J774A.1 macrophages were incubated for 30 min with or without 2 μM of GW-A2, for 5.5 h with or without 0.1 μg/ml of E. coli LPS, and then for 30 min with or without 5 mM of ATP (A) or 10 μM of nigericin (B). The levels of IL-1β in the culture medium and activated caspase-1 (p10) in the cells were measured by ELISA and Western blotting, respectively. (C—F) J774A.1 macrophages were incubated for 5.5 h with 0.1 μg/ml of E. coli LPS, for 30 min with or without 2 μM of GW-A2, and then for 30 min with or without 5 mM of ATP (C and E), 10 μM of nigericin (D) or 100 μg/ml of MSU (F). The levels of IL-1β and TNF-α in the culture medium and activated caspase-1 (p10) in the cells were measured by ELISA and Western blotting, respectively. The data are expressed as the mean ± SD of three independent experiments. The Western blotting results shown are a representative experiment of three independent experiments. *, ** and *** indicate significant differences, representing p < 0.05, p < 0.01 and p < 0.001, respectively compared to stimulation alone.

[3] = test system: cell surface of paraformaldehyde-fixed RAW 264.7 cells; assay: Flow cytometry, binding to the cell surface; assay type: cell-based, mouse; details: fixed RAW 264.7, GW-A2 30 min then 2 μg/ml LPS-FITC 30 min, 4°C; Fig 6A
Description: For binding of GW-A2 to the cell surface, RAW 264.7 cells were fixed for 15 min with 2% paraformaldehyde and then incubated for 30 min with 20 μM of GW-A2-FITC at 4°C. After washing, cells were subjected to flow cytometric analysis on a FACSCalibur using CellQuest Software (Becton Dickinson Inc., San Jose, CA, USA). To assess binding of LPS to the cell surface, RAW 264.7 cells were fixed for 15 min with 2% paraformaldehyde and then incubated for 30 min with GW-A2. This was followed by incubation for 30 min with 2 μg/ml of LPS-FITC (F3665, Sigma) at 4°C. After washing, the cells were subjected to flow cytometric analysis.

[4] = test system: PGN-, Pam3CSK4- and CPS-activated RAW 264.7 macrophages; assay: NO generation induced by other bacterial components in RAW 264.7 (Griess reaction); assay type: cell-based, mouse; details: 24 h, Fig 1B
Description: as §1
Fig 1 Effects of GW-A2 on the expression levels of inflammatory mediators. (A) RAW 264.7 macrophages were incubated for 30 min with or without GW-A2 or scrambled GW-A2, followed by incubation with or without 0.1 μg/ml of E. coli LPS or Salmonella LPS for 24 h. The levels of NO in the culture medium were measured by the Griess reaction. (B) RAW 264.7 macrophages were incubated for 30 min with or without GW-A2, followed by incubation with or without peptidoglycan (20 μg/ml), Pam3CSK4 (0.2 μg/ml) or capsular polysaccharide (3 μg/ml) for 24 h. The levels of NO in the culture medium were measured by the Griess reaction. (C) RAW 264.7 macrophages were incubated for 30 min with or without GW-A2, followed by incubation with or without 0.1 μg/ml of E. coli LPS for 24 h. The levels of iNOS and COX-2 were assessed by Western blotting and the histograms represent the expression levels compared to the LPS alone group obtained in three different experiments. (D) RAW 264.7 macrophages were incubated for 30 min with or without GW-A2, followed by incubation with or without 0.1 μg/ml of E. coli LPS for 6 h. The mRNA levels of iNOS and COX-2 were assessed by quantitative real-time PCR. (E and F) RAW 264.7 macrophages (E) and human THP-1 macrophages (F) were incubated for 30 min with or without GW-A2, followed by incubation with or without 0.1 μg/ml of E. coli LPS for 24 h. The levels of TNF-α and IL-6 were assayed by ELISA. […] The cell proliferation was measured by AlamarBlue® assay. The data are expressed as the mean ± SD of three independent experiments. *, ** and *** indicate significant differences, representing p < 0.05, p < 0.01 and p < 0.001, respectively compared to stimulation alone. # indicates significant differences, representing p < 0.05 compared to 2 μM of GW-A2 group.

GAKYAKIIYNYLKKIANALW [GW-A2] was tested, and the “NO generation, GW-A2 added 0–8 h post LPS stimulation (therapeutic)” value ([1]; 2 μM GW-A2, Fig 3B) was “significantly inhibited”, the “NO generation, GW-A2 added 16 h after LPS stimulation” value ([1]; 2 μM GW-A2, Fig 3B) was “no effect” and the “NO generation induced by E. coli-LPS” value ([1]; RAW 264.7, 30 min peptide then 0.1 μg/ml E. coli LPS 24 h, Griess, Fig 1A) was “inhibited by GW-A2 in a dose-dependent manner”. For the same sequence, the “NO generation induced by Salmonella-LPS” value ([1]; RAW 264.7, 30 min peptide then 0.1 μg/ml Salmonella LPS 24 h, Griess, Fig 1A) was “inhibited by GW-A2 in a dose-dependent manner”, the “LPS-induced NO generation, GW-A2 added with LPS or 24 h before LPS (prophylactic)” value ([1]; pre-incubation 0–24 h, then LPS 24 h, Fig 3A) was “significantly reduce” and the “LPS-induced NO generation, GW-A2 washed off before LPS stimulation” value ([1]; pre-incubation 1, 3, 6, 12 or 24 h, supernatant replaced, LPS 24 h, Fig 3C) was “not able to inhibit”. The “IL-1β secretion and caspase-1 activation induced by LPS+nigericin” value ([2]; 2 μM GW-A2 30 min before LPS 5.5 h, then 10 μM nigericin 30 min, Fig 4B) was “significantly inhibited”, the “IL-1β secretion and caspase-1 activation induced by LPS+ATP” value ([2]; 2 μM GW-A2 30 min before LPS 5.5 h, then 5 mM ATP 30 min, Fig 4A) was “significantly inhibited” and the “Nigericin-induced IL-1β secretion and caspase-1 activation in LPS-primed macrophages” value ([2]; LPS 5.5 h, then 2 μM GW-A2 30 min, then 10 μM nigericin, Fig 4D) was “no significant effect”. The “MSU-induced IL-1β secretion in LPS-primed macrophages” value ([2]; LPS 5.5 h, then 2 μM GW-A2 30 min, then 100 μg/ml MSU, Fig 4F) was “not able to inhibit”, the “ATP-induced IL-1β secretion and caspase-1 activation in LPS-primed macrophages” value ([2]; LPS 5.5 h, then 2 μM GW-A2 30 min, then 5 mM ATP, Fig 4C) was “inhibited” and the “TNF-α secretion in LPS-primed macrophages” value ([2]; LPS 5.5 h, then 2 μM GW-A2 30 min, then 5 mM ATP, Fig 4E) was “did not decrease”. For the same sequence, the “Competition with LPS-FITC for cell surface binding” value [3] was “did not compete”, the “LPS-FITC binding to the cell surface in presence of GW-A2” value [3] was “increase in LPS-FITC binding to the cell surface” and the “NO inhibitory activity in Pam3CSK4-activated macrophages” value ([4]; Pam3CSK4 0.2 μg/ml) was “much lower than that in LPS-activated macrophages”. For the same sequence, the “NO inhibitory activity in CPS-activated macrophages” value ([4]; capsular polysaccharide 3 μg/ml) was “much lower than that in LPS-activated macrophages” and the “NO inhibitory activity in PGN-activated macrophages” value ([4]; peptidoglycan 20 μg/ml) was “much lower than that in LPS-activated macrophages”.
